The subject of test [1] is A549. Put plainly: Anticancer activity against cisplatin-resistant human A549 cells assessed as reduction in cell viability measured after 48 hrs in presence of cisplatin by MTT assay. The class given is functional, cell-based. The note with it: A549, 48 h. On the technique in general: Tetrazolium assays rely on reduction of a dye to a coloured formazan, in cell work by metabolically active cells.

Test [2] deals with A549. The experiment in a line: Induction of apoptosis in cisplatin-resistant human A549 cells assessed as necrotic cells at 10 uM incubated for 24 hrs by AnnexinV-FITC/PI staining based flow cytometry (reference value: 0.53%). The class given is functional. (In flow cytometry, cells or beads pass a laser one at a time.)
The subject of test [3] is A549. Put plainly: Synergistic antiproliferative activity against cisplatin-resistant human A549 cells assessed as combination index at 15 uM incubated for 48 hrs in presence of 3 uM cisplatin by MTT assay. It counts as functional.
The subject of test [4] is A549. The experiment in a line: Downregulation of Nrf2 protein expression in cisplatin-resistant human A549 cells at 15 uM incubated for 48 hrs in presence of cisplatin by western blot analysis. The class given is functional, cell-based. For orientation: In western blotting, separated proteins are transferred to a membrane and probed.
The test system of test [5] is A549. Put plainly: Inhibition of redox balance in cisplatin-resistant human A549 cells assessed as reduction in ratio of GSH/GSSG measured after 24 hrs. The class given is functional, cell-based. The note with it: dose 10-20 µM.
The test system of test [6] is A549. The experiment in a line: Synergistic antiproliferative activity against cisplatin-resistant human A549 cells assessed as combination index at 20 uM incubated for 48 hrs in presence of 3 uM cisplatin by MTT assay. It counts as functional.
Test [7] deals with A549. The experiment in a line: Induction of apoptosis in cisplatin-resistant human A549 cells assessed as late apoptotic cells at 10 uM incubated for 24 hrs by AnnexinV-FITC/PI staining based flow cytometry (reference value: 10.8%). The class given is functional.
Test [8] relates to A549. Put plainly: Synergistic antiproliferative activity against cisplatin-resistant human A549 cells assessed as combination index at 15 uM incubated for 48 hrs in presence of 1.5 uM cisplatin by MTT assay. It counts as functional.
For test [9], the system named is A549. The experiment in a line: Synergistic antiproliferative activity against cisplatin-resistant human A549 cells assessed as combination index at 10 uM incubated for 48 hrs in presence of 1.5 uM cisplatin by MTT assay. The class given is functional.
Test [10] has as its system A549. Put plainly: Induction of intracellular ROS generation in cisplatin-resistant human A549 cells measured after 24 hrs by DCFH-DA staining based laser scanning confocal microscopy. The class given is functional, cell-based. The note with it: dose 10-20 µM.
Test [11] concerns A549. Put plainly: Synergistic antiproliferative activity against cisplatin-resistant human A549 cells assessed as combination index at 20 uM incubated for 48 hrs in presence of 4.5 uM cisplatin by MTT assay. It counts as functional.
Test [12] concerns A549. The experiment in a line: Induction of apoptosis in cisplatin-resistant human A549 cells assessed as viable cells at 20 uM incubated for 24 hrs by AnnexinV-FITC/PI staining based flow cytometry (reference value: 86.5%). The class given is functional. The note with it: read-out: Activity.
The subject of test [13] is A549. The experiment in a line: Downregulation of AKT protein expression in cisplatin-resistant human A549 cells at 15 uM incubated for 48 hrs in presence of cisplatin by western blot analysis. The class given is functional, cell-based.
The subject of test [14] is A549. Put plainly: Synergistic antiproliferative activity against cisplatin-resistant human A549 cells assessed as combination index at 20 uM incubated for 48 hrs in presence of 1.5 uM cisplatin by MTT assay. It counts as functional.
In test [15] the test system is A549. Put plainly: Induction of apoptosis in cisplatin-resistant human A549 cells assessed as late apoptotic cells at 20 uM incubated for 24 hrs by AnnexinV-FITC/PI staining based flow cytometry (reference value: 10.8%). It counts as functional.
Test [16] relates to A549. The experiment in a line: Induction of apoptosis in cisplatin-resistant human A549 cells assessed as early apoptotic cells at 20 uM incubated for 24 hrs by AnnexinV-FITC/PI staining based flow cytometry (reference value: 2.17%). The class given is functional.
Test [17] concerns A549. The experiment in a line: Downregulation of NQO-1 protein expression in cisplatin-resistant human A549 cells at 15 uM incubated for 48 hrs in presence of cisplatin by western blot analysis. It counts as functional, cell-based.
Test [18] has as its system A549. The experiment in a line: Synergistic antiproliferative activity against cisplatin-resistant human A549 cells assessed as combination index at 10 uM incubated for 48 hrs in presence of 4.5 uM cisplatin by MTT assay. It counts as functional.
The test system of test [19] is A549. Put plainly: Induction of apoptosis in cisplatin-resistant human A549 cells assessed as early apoptotic cells at 10 uM incubated for 24 hrs by AnnexinV-FITC/PI staining based flow cytometry (reference value: 2.17%). The class given is functional.
The test system of test [20] is A549. The experiment in a line: Induction of apoptosis in cisplatin-resistant human A549 cells assessed as necrotic cells at 20 uM incubated for 24 hrs by AnnexinV-FITC/PI staining based flow cytometry (reference value: 0.53%). The class given is functional.
Test [21] relates to A549. The experiment in a line: Downregulation of HO-1 protein expression in cisplatin-resistant human A549 cells at 15 uM incubated for 48 hrs in presence of cisplatin by western blot analysis. It counts as functional, cell-based.
The test system of test [22] is A549. Put plainly: Synergistic antiproliferative activity against cisplatin-resistant human A549 cells assessed as combination index at 15 uM incubated for 48 hrs in presence of 4.5 uM cisplatin by MTT assay. It counts as functional.
Test [23] concerns A549. Put plainly: Synergistic antiproliferative activity against cisplatin-resistant human A549 cells assessed as combination index at 10 uM incubated for 48 hrs in presence of 3 uM cisplatin by MTT assay. It counts as functional.
For test [24], the system named is A549. Put plainly: Downregulation of HO-1 protein expression in cisplatin-resistant human A549 cells at 15 uM incubated for 48 hrs by western blot analysis. The class given is functional, cell-based.
The subject of test [25] is A549. The experiment in a line: Induction of apoptosis in cisplatin-resistant human A549 cells assessed as viable cells at 10 uM incubated for 24 hrs by AnnexinV-FITC/PI staining based flow cytometry (reference value: 86.5%). The note with it: read-out: Activity. It counts as functional.

The text below walks through data of ChEMBL document CHEMBL4834462, “Naphtho-γ-pyrone Dimers from an Endozoic Aspergillus niger and the Effects of Coisolated Monomers in Combination with Cisplatin on a Cisplatin-Resistant A549 Cell Line” (J Nat Prod, 2021).

Activity calls are given as the source filed them. The calls are words filed in the database; no cut-off is given here. Where only a bound is given, the exact number is not on record here.

By IC50 is commonly meant the concentration that inhibits the measured activity by half.

For `COc1cc(O)cc2cc3oc(C)cc(=O)c3c(O)c12`, the IC50 with A549 [1] was greater than 20 µM.

For `COc1cc(OC)c2c(c1)c(-c1c(O)cc3cc4oc(C)cc(=O)c4c(O)c3c1OC)c(O)c1c(=O)cc(C)oc12`, the IC50 in the test on A549 [1] was greater than 20 µM.

With `COc1cc(OC)c2c(O)c3c(=O)cc(C)oc3c(-c3c(OC)cc4cc5oc(C)cc(=O)c5c(O)c4c3OC)c2c1` [AURASPERONE A], the IC50 in the test with A549 [1] is greater than 20 µM.

In the case of `COc1cc(OC)c2c(c1)c(-c1c(OC)cc3cc4oc(C)cc(=O)c4c(O)c3c1OC)c(O)c1c(=O)cc(C)oc12` [ASPERPYRONE C], the IC50 with A549 [1] was greater than 20 µM.

Take `COc1cc(OC)c2c(O)c3c(c(-c4c(OC)cc5cc(O)c6c(=O)cc(C)oc6c5c4OC)c2c1)O[C@](C)(O)CC3=O`: the IC50 with A549 [1] is greater than 20 µM.

Regarding `COc1cc(OC)c2c(O)c3c(=O)cc(C)oc3c(-c3c(OC)cc4cc(O)c5c(=O)cc(C)oc5c4c3OC)c2c1` [FONSECINONE A], the IC50 in the test with A549 [1] is greater than 20 µM.

For the molecule `COc1cc(OC)c2c(O)c3c(=O)cc(C)oc3c(-c3c(O)cc4cc(O)c5c(=O)cc(C)oc5c4c3OC)c2c1` [ASPERPYRONE A], the IC50 in the test on A549 [1] is greater than 20 µM.

For `COc1cc(O)cc2cc(O)c3c(=O)cc(C)oc3c12`, the Activity with A549 [2] was 0.9%; in the test with A549 [7] it was 23.6%; in the test with A549 [10], “Dose-Dependent Effect”; with A549 [15], 41.3%; with A549 [16], 4.05%; in the test with A549 [19], 2.87%. For the same molecule, in the test on A549 [20], the Activity worked out at 1.34%. For the same molecule, the CI with A549 [3] stood at 0.72; with A549 [6], 0.76; with A549 [8] it was 0.75; in the test with A549 [9], 1.95; in the test on A549 [11] it was 0.81; in the test with A549 [14] it was 0.76. In addition, the CI in the test with A549 [18] is recorded as 0.83; in the test with A549 [22], 0.79; in the test with A549 [23] it was 0.95. Further, the inhibition result in the test on A549 [4], with A549 [13], in the test on A549 [17], in the test with A549 [21] and with A549 [24] was “Active” in each case. The inhibition entry in the test on A549 [5] was “Dose-Dependent Effect”. Besides, the viability at 20 µM with A549 [12] was 53.3%. In the test on A549 [1], the IC50 was greater than 20 µM. Further, in the test with A549 [25], the viability at 10 µM was 72.6%.

Consider `O=C1C=C2O[C@H]3CC(=O)c4c(O)cc(O)cc4C3=C2c2cc(O)cc(O)c21`, for which the IC50 in the test with A549 [1] is greater than 20 µM.

In the case of `COc1cc(OC)c2c(c1)c(-c1c(OC)cc3cc(O)c4c(=O)cc(C)oc4c3c1OC)c(O)c1c(=O)cc(C)oc12`, the IC50 in the test on A549 [1] was greater than 20 µM.

With `COc1cc(OC)c2c(O)c3c(=O)cc(C)oc3cc2c1` [RUBROFUSARIN B], in the test on A549 [1], the IC50 was greater than 20 µM.

On to `COc1cc(OC)c2c(O)c3c(=O)cc(C)oc3c(-c3c(O)cc4cc5oc(C)cc(=O)c5c(O)c4c3OC)c2c1`, for which the IC50 in the test with A549 [1] was greater than 20 µM.
